Experimental data: PubChem BioAssay AID2060622 (Molecular Pharmacology Branch, DTP, NCI, 2025)

Test system: 242566-281-R-J2-PDC complex spheroid viability
Assay: Anticancer human tumor 242566-281-R-J2-PDC patient-derived pancreatic carcinoma cell line growth inhibition [CLK]
Details: for IC50: curve of first compound; for viability, T/C: stronger effect = lower value
In short: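 Multi-cell-type spheroids combined patient-derived tumor cells with HUVEC endothelial cells and human mesenchymal stem cells. Paired agents were dosed in half-log steps down from about clinical Cmax, or from 10 microM where Cmax was unknown.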

[1] = second compound 0.0316 µM, first compound 0.0316 µM
[2] = second compound 0.0316 µM, first compound 0.1 µM
[3] = second compound 0.0316 µM, first compound 0.316 µM
[4] = second compound 0.0316 µM, first compound 1 µM
[5] = second compound 0.1 µM, first compound 0.0316 µM
[6] = second compound 0.1 µM, first compound 0.1 µM
[7] = second compound 0.1 µM, first compound 0.316 µM
[8] = second compound 0.1 µM, first compound 1 µM
[9] = second compound 0.316 µM, first compound 0.0316 µM
[10] = second compound 0.316 µM, first compound 0.1 µM
[11] = second compound 0.316 µM, first compound 0.316 µM
[12] = second compound 0.316 µM, first compound 1 µM
[13] = second compound 1 µM, first compound 0.0316 µM
[14] = second compound 1 µM, first compound 0.1 µM
[15] = second compound 1 µM, first compound 0.316 µM
[16] = second compound 1 µM, first compound 1 µM
[17] = second compound 3.16 µM, first compound 0.0316 µM
[18] = second compound 3.16 µM, first compound 0.1 µM
[19] = second compound 3.16 µM, first compound 0.316 µM
[20] = second compound 3.16 µM, first compound 1 µM
[21] = second compound 10 µM, first compound 0.0316 µM
[22] = second compound 10 µM, first compound 0.1 µM
[23] = second compound 10 µM, first compound 0.316 µM
[24] = second compound 10 µM, first compound 1 µM
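Also: spheroids exposed to compounds for 7 days before readout.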
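For viability, T/C in this document: 100% = DMSO vehicle control wells.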

Q: What does the source list for `CC(=O)O[C@H]1C(=O)[C@@]2(C)[C@H]([C@H](OC(=O)c3ccccc3)[C@]3(O)C[C@H](OC(=O)[C@H](O)[C@@H](NC(=O)c4ccccc4)c4ccccc4)C(C)=C1C3(C)C)[C@]1(OC(C)=O)CO[C@@H]1C[C@@H]2O` + CNC(=O)c1ccc(Nc2nc(OC3CCCC3)c3c(-c4ccc5nc(C)oc5c4)c[nH]c3n2)c(OC)c1?
A: IC50 (second compound 0.0316 µM): < 31.6 nM; IC50 (second compound 0.1 µM): > 10000 nM; IC50 (second compound 0.316 µM): > 10000 nM; IC50 (second compound 1 µM): > 10000 nM; IC50 (second compound 3.16 µM): < 31.6 nM; IC50 (second compound 10 µM): < 31.6 nM; viability, T/C [1]: 61%; viability, T/C [2]: 47.7%; viability, T/C [3]: 42%; viability, T/C [4]: 41.7%; viability, T/C (second compound 0.0316 µM, first compound 3.16 µM): 46%; viability, T/C (second compound 0.0316 µM, first compound 10 µM): 72.3%; viability, T/C [5]: 84.7%; viability, T/C [6]: 66.2%; viability, T/C [7]: 53.2%; viability, T/C [8]: 61.9%; viability, T/C (second compound 0.1 µM, first compound 3.16 µM): 70.7%; viability, T/C (second compound 0.1 µM, first compound 10 µM): 108%; viability, T/C [9]: 91.7%; viability, T/C [10]: 95%; viability, T/C [11]: 86.2%; viability, T/C [12]: 92%; viability, T/C (second compound 0.316 µM, first compound 3.16 µM): 115%; viability, T/C (second compound 0.316 µM, first compound 10 µM): 94.6%; viability, T/C [13]: 62.3%; viability, T/C [14]: 56.6%; viability, T/C [15]: 52.2%; viability, T/C [16]: 51.6%; viability, T/C (second compound 1 µM, first compound 3.16 µM): 50.7%; viability, T/C (second compound 1 µM, first compound 10 µM): 56.2%; viability, T/C [17]: 51%; viability, T/C [18]: 40.9%; viability, T/C [19]: 43.1%; viability, T/C [20]: 45.2%; viability, T/C (second compound 3.16 µM, first compound 3.16 µM): 46.3%; viability, T/C (second compound 3.16 µM, first compound 10 µM): 43%; viability, T/C [21]: 43%; viability, T/C [22]: 36.4%; viability, T/C [23]: 43.7%; viability, T/C [24]: 46.2%; viability, T/C (second compound 10 µM, first compound 3.16 µM): 43.4%; viability, T/C (second compound 10 µM, first compound 10 µM): 44.8%

Q: How did the IC50 (second compound 0.0316 µM) turn out when `CCc1c2c(nc3ccc(O)cc13)-c1cc3c(c(=O)n1C2)COC(=O)[C@]3(O)CC` + CNC(=O)c1ccc(Nc2nc(OC3CCCC3)c3c(-c4ccc5nc(C)oc5c4)c[nH]c3n2)c(OC)c1 was run?
A: 19.6 nM

Q: And the IC50 (second compound 0.1 µM)?
A: 12.6 nM

Q: And the IC50 (second compound 0.316 µM)?
A: 5.05 nM

Q: What about the IC50 (second compound 1 µM) of the same compound?
A: < 3.16 nM

Q: And the IC50 (second compound 3.16 µM)?
A: < 3.16 nM

Q: What about the IC50 (second compound 10 µM) of the same compound?
A: < 3.16 nM

Q: And the viability, T/C (second compound 0.0316 µM, first compound 0.00316 µM)?
A: 93.6%

Q: What about the viability, T/C (second compound 0.0316 µM, first compound 0.01 µM) of the same compound?
A: 70.8%

Q: And the viability, T/C [1]?
A: 35.2%

Q: And the viability, T/C [2]?
A: 12.7%

Q: And the viability, T/C [3]?
A: 5.19%

Q: And the viability, T/C [4]?
A: 1.82%

Q: And the viability, T/C (second compound 0.1 µM, first compound 0.00316 µM)?
A: 76%

Q: And the viability, T/C (second compound 0.1 µM, first compound 0.01 µM)?
A: 58.4%

Q: What about the viability, T/C [5] of the same compound?
A: 17.6%

Q: What about the viability, T/C [6] of the same compound?
A: 8.93%

Q: And the viability, T/C [7]?
A: 5.07%

Q: What about the viability, T/C [8] of the same compound?
A: 2.28%

Q: What about the viability, T/C (second compound 0.316 µM, first compound 0.00316 µM) of the same compound?
A: 69.5%

Q: And the viability, T/C (second compound 0.316 µM, first compound 0.01 µM)?
A: 21.2%

Q: What about the viability, T/C [9] of the same compound?
A: 8.24%

Q: And the viability, T/C [10]?
A: 5.13%

Q: What about the viability, T/C [11] of the same compound?
A: 3.51%

Q: And the viability, T/C [12]?
A: 3.02%

Q: What about the viability, T/C (second compound 1 µM, first compound 0.00316 µM) of the same compound?
A: 29.4%

Q: What about the viability, T/C (second compound 1 µM, first compound 0.01 µM) of the same compound?
A: 9.85%

Q: And the viability, T/C [13]?
A: 4.94%

Q: What about the viability, T/C [14] of the same compound?
A: 3.94%

Q: And the viability, T/C [15]?
A: 3.17%

Q: What about the viability, T/C [16] of the same compound?
A: 2.15%

Q: What about the viability, T/C (second compound 3.16 µM, first compound 0.00316 µM) of the same compound?
A: 23%

Q: What about the viability, T/C (second compound 3.16 µM, first compound 0.01 µM) of the same compound?
A: 7.75%

Q: What about the viability, T/C [17] of the same compound?
A: 4.05%

Q: What about the viability, T/C [18] of the same compound?
A: 3.95%

Q: And the viability, T/C [19]?
A: 3.63%

Q: What about the viability, T/C [20] of the same compound?
A: 1.54%

Q: What about the viability, T/C (second compound 10 µM, first compound 0.00316 µM) of the same compound?
A: 18.5%

Q: What about the viability, T/C (second compound 10 µM, first compound 0.01 µM) of the same compound?
A: 7.14%

Q: And the viability, T/C [21]?
A: 4.31%

Q: And the viability, T/C [22]?
A: 3.19%

Q: What about the viability, T/C [23] of the same compound?
A: 3.1%

Q: What about the viability, T/C [24] of the same compound?
A: 2.01%
